# Source: US10435405B2, “Pyrazolopyridine compounds and uses thereof” (Incyte Corporation, priority 2016, dated 2019)
# Molecular target: HPK1 (Homo sapiens (Human), UniProt Q92918)
# Assay: HPK1 Kinase Binding Assay
# Protocol: A stock solution of 1 mM test compound was prepared in DMSO. The compound plate was prepared by 3-fold and 11-point serial dilutions. 0.1 μL of the compound in DMSO was transferred from the compound plate to the white 384 well polystyrene plates. The assay buffer contained 50 mM HEPES, pH 7.5, 0.01% Tween-20, 5 mM MgCl2, 0.01% BSA, and 5 mM DTT. 5 μl of 4 nM active HPK1 (SignalChem M23-11G) prepared in the buffer was added to the plate. The enzyme concentration given was based on the given stock concentration reported by the vender. 5 μl of 18 nM tracer 222 (ThermoFisher PV6121) and 4 nM LanthaScreen Eu-Anti GST antibody (ThermoFisher PV5595) were added. After one hour incubation at 25° C., the plates were read on a PHERAstar FS plate reader (BMG Labtech). Ki values were determined.
# Sequence of HPK1 (Q92918 1-346): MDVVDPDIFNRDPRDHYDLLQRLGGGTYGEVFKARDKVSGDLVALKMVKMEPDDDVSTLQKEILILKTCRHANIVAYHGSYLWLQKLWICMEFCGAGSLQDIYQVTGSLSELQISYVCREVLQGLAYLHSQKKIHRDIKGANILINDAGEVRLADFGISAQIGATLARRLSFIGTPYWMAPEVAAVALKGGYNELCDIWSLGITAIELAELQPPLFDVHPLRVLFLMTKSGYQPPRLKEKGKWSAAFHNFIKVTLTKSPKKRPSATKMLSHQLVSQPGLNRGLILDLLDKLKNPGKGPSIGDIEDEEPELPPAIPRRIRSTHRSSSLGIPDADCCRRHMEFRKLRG
row,Ki [nM],SMILES
1,≤ 100,"COC(=O)NCc1cc(C)c(-c2cc3c(-c4cnn(C)c4)n[nH]c3cn2)c(F)c1 [Example 192, Methyl 3-fluoro-5-methyl-4-(3-(1-methyl-1H-pyrazol-4-yl)-1H-pyrazolo[3,4-c]pyridin-5-yl)benzylcarbamate]"
2,≤ 100,"CC(C)NC1CC(c2cc(F)c(-c3cc4c(-c5cnn(C)c5)n[nH]c4cn3)c(F)c2)C1 (centres unmarked) [Example 95, 3-(3,5-Difluoro-4-(3-(1-methyl-1H-pyrazol-4-yl)-1H-pyrazolo[3,4-c]pyridin-5-yl)phenyl)-N-isopropylcyclobutanamine]"
3,≤ 100,"CN1CCN(c2ccc(C(=O)Nc3n[nH]c4cnc(-c5c(F)cc(NC(=O)CN6CCCC6)cc5F)cc34)cc2)CC1 [Example 156, N-(5-(2,6-Difluoro-4-(2-(pyrrolidin-1-yl)acetamido)phenyl)-1H-pyrazolo[3,4-c]pyridin-3-yl)-4-(4-methylpiperazin-1-yl)benzamide]"
4,≤ 100,"CNCc1cc(F)c(-c2cc3c(-c4cnn(C)c4)n[nH]c3cn2)c(C(F)F)c1 [Example 235, 1-(3-(Difluoromethyl)-5-fluoro-4-(3-(1-methyl-1H-pyrazol-4-yl)-1H-pyrazolo[3,4-c]pyridin-5-yl)phenyl)-N-methylmethanamine]"
5,≤ 100,"CNc1ccc(F)c(-c2cc3c(-c4cnn(C)c4)n[nH]c3cn2)c1F [Example 61, 2,4-Difluoro-N-methyl-3-(3-(1-methyl-1H-pyrazol-4-yl)-1H-pyrazolo[3,4-c]pyridin-5-yl)aniline]"
6,≤ 100,"Cc1cc(CNCc2cn(C)cn2)cc(F)c1-c1cc2c(-c3cnn(C)c3)n[nH]c2cn1 [Example 186, N-(3-Fluoro-5-methyl-4-(3-(1-methyl-1H-pyrazol-4-yl)-1H-pyrazolo[3,4-c]pyridin-5-yl)benzyl)-1-(1-methyl-1H-imidazol-4-yl)methanamine]"
7,≤ 100,"CCc1ccc(C(=O)Nc2n[nH]c3cnc(-c4c(F)cccc4OC)cc23)cc1 [Example 8, 4-Ethyl-N-(5-(2-fluoro-6-methoxyphenyl)-1H-pyrazolo[3,4-c]pyridin-3-yl)benzamide]"
8,≤ 100,"CNC1CCc2cc(F)c(-c3cc4c(-c5ccc(N6CCN(C)CC6)cc5)n[nH]c4cn3)c(F)c21 (centres unmarked) [Example 205, 5,7-Difluoro-N-methyl-6-(3-(4-(4-methylpiperazin-1-yl)phenyl)-1H-pyrazolo[3,4-c]pyridin-5-yl)-2,3-dihydro-1H-inden-1-amine]"
9,≤ 100,"COc1cccc(F)c1-c1cc2c(NC(=O)c3ccc(N4CCOCC4)cc3)n[nH]c2cn1 [Example 24, N-(5-(2-Fluoro-6-methoxyphenyl)-1H-pyrazolo[3,4-c]pyridin-3-yl)-4-morpholinobenzamide]"
10,≤ 100,"CCNCc1cc(F)c(-c2cc3c(NC(=O)c4ccc(N5CCN(C)CC5)cc4)n[nH]c3cn2)c(C(F)(F)F)c1 [Example 154, N-(5-(4-((Ethylamino)methyl)-2-fluoro-6-(trifluoromethyl)phenyl)-1H-pyrazolo[3,4-c]pyridin-3-yl)-4-(4-methylpiperazin-1-yl)benzamide]"
11,≤ 100,"CN1CCN(c2ccc(C(=O)Nc3n[nH]c4cnc(-c5c(F)cc(CN6CCCC6)cc5F)cc34)cc2)CC1 [Example 141, N-(5-(2,6-Difluoro-4-(pyrrolidin-1-ylmethyl)phenyl)-1H-pyrazolo[3,4-c]pyridin-3-yl)-4-(4-methylpiperazin-1-yl)benzamide]"
12,≤ 100,"CC(=O)NCc1cc(C)c(-c2cc3c(-c4cnn(C)c4)n[nH]c3cn2)c(F)c1 [Example 191, N-(3-Fluoro-5-methyl-4-(3-(1-methyl-1H-pyrazol-4-yl)-1H-pyrazolo[3,4-c]pyridin-5-yl)benzyl)acetamide]"
13,≤ 100,"CNCc1cc(F)c(-c2cc3c(-c4ccnc(N5CCN(C)CC5)c4)n[nH]c3cn2)c(F)c1 [Example 163, 1-(3,5-Difluoro-4-(3-(2-(4-methylpiperazin-1-yl)pyridin-4-yl)-1H-pyrazolo[3,4-c]pyridin-5-yl)phenyl)-N-methylmethanamine]"
14,≤ 100,"CN1CCN(c2ccc(-c3n[nH]c4cnc(-c5c(F)cc(F)cc5F)cc34)cc2)CC1 [Example 46, 3-(4-(4-Methylpiperazin-1-yl)phenyl)-5-(2,4,6-trifluorophenyl)-1H-pyrazolo[3,4-c]pyridine]"

# Further lines, the compound ahead of its results:
row,SMILES,Ki [nM]
1,"COc1cccc(F)c1-c1cc2c(NC(=O)c3ccc(N4CCN(C)C(=O)C4)cc3)n[nH]c2cn1 [Example 27, N-(5-(2-fluoro-6-methoxyphenyl)-1H-pyrazolo[3,4-c]pyridin-3-yl)-4-(4-methyl-3-oxopiperazin-1-yl)benzamide]",≤ 100
2,"CCn1cc(-c2n[nH]c3cnc(-c4c(C)cc(C5CCCCN5)cc4F)cc23)cn1 (single isomer, unassigned) [Example 231, 3-(1-Ethyl-1H-pyrazol-4-yl)-5-(2-fluoro-6-methyl-4-(piperidin-2-yl)phenyl)-1H-pyrazolo[3,4-c]pyridine]",≤ 100
3,"CNCc1cc(F)c(-c2cc3c(-c4cnc(N5CCN(C)CC5)nc4)n[nH]c3cn2)c(F)c1 [Example 217, 1-(3,5-Difluoro-4-(3-(2-(4-methylpiperazin-1-yl)pyrimidin-5-yl)-1H-pyrazolo[3,4-c]pyridin-5-yl)phenyl)-N-methylmethanamine]",≤ 100
4,"CNC(C)c1cc(C)c(-c2cc3c(-c4cnn(C5CC5)c4)n[nH]c3cn2)c(F)c1 (single isomer, unassigned) [Example 228, 1-(4-(3-(1-Cyclopropyl-1H-pyrazol-4-yl)-1H-pyrazolo[3,4-c]pyridin-5-yl)-3-fluoro-5-methylphenyl)-N-methylethanamine]",≤ 100
5,"CCn1cc(-c2n[nH]c3cnc(-c4c(C)cc(C5CCCCN5)cc4F)cc23)cn1 (single isomer, unassigned) [Example 230, 3-(1-Ethyl-1H-pyrazol-4-yl)-5-(2-fluoro-6-methyl-4-(piperidin-2-yl)phenyl)-1H-pyrazolo[3,4-c]pyridine]",≤ 100
6,"CNCc1cc(F)c(-c2cc3c(-c4cncc(N5CCN(C)CC5)c4)n[nH]c3cn2)c(F)c1 [Example 219, 1-(3,5-Difluoro-4-(3-(5-(4-methylpiperazin-1-yl)pyridin-3-yl)-1H-pyrazolo[3,4-c]pyridin-5-yl)phenyl)-N-methylmethanamine]",≤ 100
7,"CCNCc1ccc(F)c(-c2cc3c(-c4cnn(C)c4)n[nH]c3cn2)c1C [Example 236, N-(4-Fluoro-2-methyl-3-(3-(1-methyl-1H-pyrazol-4-yl)-1H-pyrazolo[3,4-c]pyridin-5-yl)benzyl)ethanamine]",≤ 100
8,"COc1cccc(F)c1-c1cc2c(N3CCN(c4ccc(Br)cc4)C(=O)C3)n[nH]c2cn1 [Example 37, 1-(4-Bromophenyl)-4-(5-(2-fluoro-6-methoxyphenyl)-1H-pyrazolo[3,4-c]pyridin-3-yl)piperazin-2-one]",≤ 100
9,"CNC(=O)c1ccc(-c2n[nH]c3cnc(-c4c(F)cccc4OC)cc23)cc1F [Example 100, 2-Fluoro-4-(5-(2-fluoro-6-methoxyphenyl)-1H-pyrazolo[3,4-c]pyridin-3-yl)-N-methylbenzamide]",≤ 100
10,"COc1cccc(F)c1-c1cc2c(NC(=O)c3ccc(N4CCNC(=O)C4)cc3)n[nH]c2cn1 [Example 25, N-(5-(2-Fluoro-6-methoxyphenyl)-1H-pyrazolo[3,4-c]pyridin-3-yl)-4-(3-oxopiperazin-1-yl)benzamide]",≤ 100
11,"COCCNC(=O)Nc1cc(F)c(-c2cc3c(-c4cnn(C)c4)n[nH]c3cn2)c(F)c1 [Example 71, 1-(3,5-Difluoro-4-(3-(1-methyl-1H-pyrazol-4-yl)-1H-pyrazolo[3,4-c]pyridin-5-yl)phenyl)-3-(2-methoxyethyl)urea]",≤ 100
12,"COc1cccc(F)c1-c1cc2c(NCc3ccc(N4CCN(C)CC4)cc3)n[nH]c2cn1 [Example 41, 5-(2-Fluoro-6-methoxyphenyl)-N-(4-(4-methylpiperazin-1-yl)benzyl)-1H-pyrazolo[3,4-c]pyridin-3-amine]",500 to 2000
13,"CNCc1ccc(F)c(-c2cc3c(-c4cnn(C)c4)n[nH]c3cn2)c1OC [Example 138, 1-(4-Fluoro-2-methoxy-3-(3-(1-methyl-1H-pyrazol-4-yl)-1H-pyrazolo[3,4-c]pyridin-5-yl)phenyl)-N-methylmethanamine]",≤ 100
14,"CNCc1cc(C)c(-c2cc3c(-c4cccc(N5CCOCC5)n4)n[nH]c3cn2)c(F)c1 [Example 117, 1-(3-Fluoro-5-methyl-4-(3-(6-morpholinopyridin-2-yl)-1H-pyrazolo[3,4-c]pyridin-5-yl)phenyl)-N-methylmethanamine]",≤ 100
15,"Cc1cc(C2CCCN2)cc(F)c1-c1cc2c(-c3cnn(C)c3)n[nH]c2cn1 (single isomer, unassigned) [Example 171, 5-(2-Fluoro-6-methyl-4-(pyrrolidin-2-yl)phenyl)-3-(1-methyl-1H-pyrazol-4-yl)-1H-pyrazolo[3,4-c]pyridine]",≤ 100
16,"COc1cccc(F)c1-c1cc2c(NC(=O)c3cccc(Br)c3)n[nH]c2cn1 [Example 4, 3-Bromo-N-(5-(2-fluoro-6-methoxyphenyl)-1H-pyrazolo[3,4-c]pyridin-3-yl)benzamide]",≤ 100
17,"COc1cccc(F)c1-c1cc2c(-c3ccc(N4CCN(C)CC4)cc3)n[nH]c2cn1 [Example 43, 5-(2-Fluoro-6-methoxyphenyl)-3-(4-(4-methylpiperazin-1-yl)phenyl)-1H-pyrazolo[3,4-c]pyridine]",≤ 100
18,"Cn1cc(-c2n[nH]c3cnc(-c4c(F)cc(NC(=O)CN5C6CCC5CC6)cc4F)cc23)cn1 [Example 68, 2-(7-Azabicyclo[2.2.1]heptan-7-yl)-N-(3,5-difluoro-4-(3-(1-methyl-1H-pyrazol-4-yl)-1H-pyrazolo[3,4-c]pyridin-5-yl)phenyl)acetamide]",≤ 100
